# Data: patent US20080064665A1, “Combination approaches to cancer treatment” (priority 2006, published 2008)
# Values joined by “and” are separate entries in the source; they are usually repeats but may differ in a detail not shown here. Equal values may be shown once.
# How the values were obtained:
# [1] = system: H460 human lung cancer xenografts; assay: Growth delay and survival of H460 xenografts, PR-104, docetaxel and schedules thereof; assay type: in vivo, CD-1 nude mice
# Experimental: Specific pathogen-free homozygous nu/nu (CD-1) nu/nu [NIH-III] (Charles River Laboratories, Wilmington, Mass.) were provided by the Animal Resources Unit (University of Auckland) at 7 to 9 weeks of age. Mice were housed in groups of 4-7 in a temperature-controlled room (22±2° C.) with a 12-hour light/dark cycle and were fed ad libitum water and a standard rodent diet (Harlan Teklad diet 2018i). All animals were uniquely identifiable by ear tag number. All animal protocols were approved by the Animal Ethics Committee of the University of Auckland (AEC approval C337).
# A single cell suspension was prepared by trypsinisation (1× Trypsin/EDTA) from spinner culture, counted, and suspended in ∝MEM to give required cell concentration, as listed below. Mice were inoculated (100 μL) at a single subcutaneous site (right flank) using a 1 ml syringe with a 26 gauge needle.
# Seven days post-inoculation, tumors were measured three times per week until they reached the treatment size (mean diameter 5.8-8.2 mm; average 7.0 mm). Mean tumor diameter was averaged from the longest diameter (length) multiplied by the perpendicular measurement (width). Tumor diameters were estimated when mean diameter was below 5 mm, and measured with electronic callipers when ≧5 mm.
# Tumor volume was calculated using the formula:
# where L=length and w=width in mm of the carcinoma.
# Excess compound was discarded.
# Tumor bearing mice were assigned randomly to treatment groups when tumor diameter reached treatment size. Animals were rejected if xenografts show evidence of: (i) attachment to underlying muscle (due to risk of local invasion), (ii) signs of ulceration, or (iii) indolent tumor growth. Drug administration begins on the day of assignment. In general, 0.7-0.8 of the inoculated population is assigned to the experiment. Drug administration was undertaken as outlined above.
# During and after treatment, tumor size and body weights were measured regularly. Animals were culled if (i) the average diameter of the tumor exceeds 15 mm (survival end-point), (ii) body weight loss exceeds 15% of pre-treatment value, (iii) there is evidence of prolonged or excessive morbidity, or (iv) tumor ulceration occurred. Each experiment was terminated at day 120 after treatment initiation.
# Kaplan-Meier plots were constructed and median survival was calculated (TTE50). The statistical significance of any differences in overall survival between treatment groups and control was analysed by Log Rank P statistical test. The log-rank test was calculated using XLStat Life (Kovach Computing Services Ltd). The statistic significance in overall survival between each treatment group and control was determined by testing the null hypothesis that the survival curves are identical in the two populations.
# The time for individual tumors to increase in volume by 4 fold relative to treatment day-1 (relative tumor volume×4−RTV^4) was recorded. The median RTV^4 is calculated for each group and the difference in RTV^4 between control and treatment groups is described as the Tumor Growth Delay (TGD) in days. RTV^4 values notmalise for any bias in tumor treatment volume on day-1. The RTV^4 of each treatment group is tested for statistical difference from control group by unpaired t-test and Mann Whitney U test (means and medians, respectively).
# In circumstances where long-term controls (LTCs) occur, an RTV^4 value equal to the total duration of the experiment is assigned for the purposes of statistical analysis (usually 120 days). Where one or more LTC is present the median RTV^4 of each treatment group is tested for statistical difference from control group by Mann Whitney U test only. The statistical analysis was conducted at a p level of 0.05 (two-tailed). SigmaStat v3.10 was used for the statistical analysis of RTV^4 values. SigmaPlot v9 was used for all graph plots.
# Weight loss nadirs (time independent maxima) were recorded for each treatment group.
# [2] = system: SiHa human cervical cancer xenograft; assay: Growth delay and survival of SiHa xenograft, PR-104 and docetaxel; assay type: in vivo, Rag-1^null mice
# Description: Analysis: End-points will be expressed as TTE50, Median RTV^4 and plotted in Kaplan-Meier Plots and analysed by Log Rank P statistical test. Weight loss nadir will be compared between schedules.
# [3] = system: A2780 human ovarian cancer xenografts; assay: Growth delay and survival of A2780 xenografts, PR-104 and docetaxel; assay type: in vivo, CD-1 nude mice; conditions: A2780 xenograft
# Experimental: End-point: After treatment, tumor size and body weights were measured regularly and mice were culled either when the average diameter of the tumor reached 15 mm (end-point), the tumor ulcerated or when the body weight change reached −15%. Experiment was ended and all remaining mice culled 120 days after treatment.
# Analysis: End-points will be expressed as TTE50, Median RTV^4 and plotted in Kaplan-Meier Plots and analysed by Log Rank P statistical test.
# [4] = H460 xenograft, PR-104 652 mg/kg, docetaxel 73 mg/kg, q2w×2
# [5] = Rag-1 mice, PR-104 652 mg/kg, docetaxel 73 mg/kg, q2w×2
# [6] = PR-104 652 mg/kg, docetaxel 73 mg/kg, q2w×2
smiles,measurement,setting,value
"CC(=O)O[C@@]12CO[C@@H]1C[C@H](O)[C@@]1(C)C(=O)[C@H](O)C3=C(C)[C@@H](OC(=O)[C@H](O)[C@@H](NC(=O)OC(C)(C)C)c4ccccc4)C[C@@](O)([C@@H](OC(=O)c4ccccc4)[C@H]21)C3(C)C [Docetaxel, (2R,3S)-N-carboxy-3-phenylisoserine, N-tert-butyl ester, 13-ester with 5β-20-epoxy-1,2α,4,7β,10β,13α-hexahydroxytax-11-en-9-one 4-acetate 2-benzoate, trihydrate, reference compound]",Weight Loss Nadir (%),"[1]; H460 xenograft, CD-1 nude mice, mean body weight loss nadir, PR-104 652 mg/kg, docetaxel 73 mg/kg, i.p., q2w×2, trihydrate",−4.2 ± 1.0%
same,Unscheduled deaths,"[1]; H460 xenograft, female CD-1 nude mice, total dose PR-104 652 mg/kg, docetaxel 73 mg/kg, i.p., q2w×2",0
same,"LTC (long term control, failed to reach end-point within duration of experiment)","[1]; H460 xenograft, 120 day experiment, PR-104 652 mg/kg, docetaxel 73 mg/kg, q2w×2",0
same,Median RTV^4 (median time for tumor volume to increase 4-fold),[1]; [4],8 days
same,TGD (tumor growth delay; relative gain in median RTV^4 versus control),[1]; [4],0%
same,TTE50 (median time for tumor end-point to occur from day of treatment),"[1]; H460 xenograft, end-point >15 mm mean diameter, PR-104 652 mg/kg, docetaxel 73 mg/kg, q2w×2",14 days
same,Gain TTE50 (improvement in median survival),"[1]; H460 xenograft, versus control (11 days), PR-104 652 mg/kg, docetaxel 73 mg/kg, q2w×2",3 days
same,activity against H460 xenograft (in words),[1]; tumor growth delay and survival end-points,refractory
same,activity against SiHa xenograft (in words),[2]; Rag-1 mice,displayed activity
same,LTC (long term control),"[2]; Rag-1 mice, 120 day experiment",0
same,Weight Loss Nadir (%),"[2]; Rag-1 mice, PR-104 652 mg/kg, docetaxel 73 mg/kg, i.p., q2w×2, trihydrate",−7.0±0.8%
same,Median RTV^4,[2]; [5],44.5 days
same,TTE50 (median time for tumor end-point to occur),[2]; [5],54 days
same,TGD (relative gain in median RTV^4 versus control),"[2]; Rag-1 mice, PR-104 652 mg/kg, docetaxel 73 mg/kg, q2w×2, trihydrate",271% and 270.8%
same,Day of death,"[2]; Rag-1 mice, day of unscheduled death, trihydrate",44 and 66
same,improvement in tumor growth delay,"[2]; Rag-1 mice, versus control",32.5 days
same,Gain TTE50 (improvement in median survival),"[2]; Rag-1 mice, versus control (17 days)",37 days
same,Unscheduled deaths,"[2]; female Rag-1 mice, total dose PR-104 652 mg/kg, docetaxel 73 mg/kg, i.p., q2w×2",2
same,Weight Loss Nadir (%),"[3]; CD-1 nude mice, PR-104 652 mg/kg, docetaxel 73 mg/kg, i.p., q2w×2, trihydrate",−8.7±1.5%
same,LTC (long term control),[3]; 120 day experiment,0
same,Median RTV^4,[3]; [6],12 days
same,TTE50,[3]; [6],14 days
same,TGD (relative gain in median RTV^4 versus control),"[3]; PR-104 652 mg/kg, docetaxel 73 mg/kg, q2w×2, trihydrate",167% and 166.7%
same,improvement in median tumor growth delay,[3]; versus control,7.5 days
same,Gain TTE50 (improvement in median survival),[3]; versus control (6 days),8 days
